Assay results: patent US20080227752A1, “Methods to Inhibit Histone Acetyltransferase Using Glycosaminoglycans” (Trustees of Boston University, priority 2004, published 2008)
pIC50: −log10 of the molar value.

Tests used:
p300 HAT domain = target: T1, p300 HAT domain (Homo sapiens, UniProt Q09472); assay: In vitro HAT activity assay, biotinylated histone H4 peptide substrate, streptavidin capture; format: biochemical
T1 construct: 20 U/mL of HAT enzyme (p300 HAT domain; from Upstate); purchased Upstate (Lake Placid, N.Y.)
T1 sequence (Q09472 1287-1663 limits assumed): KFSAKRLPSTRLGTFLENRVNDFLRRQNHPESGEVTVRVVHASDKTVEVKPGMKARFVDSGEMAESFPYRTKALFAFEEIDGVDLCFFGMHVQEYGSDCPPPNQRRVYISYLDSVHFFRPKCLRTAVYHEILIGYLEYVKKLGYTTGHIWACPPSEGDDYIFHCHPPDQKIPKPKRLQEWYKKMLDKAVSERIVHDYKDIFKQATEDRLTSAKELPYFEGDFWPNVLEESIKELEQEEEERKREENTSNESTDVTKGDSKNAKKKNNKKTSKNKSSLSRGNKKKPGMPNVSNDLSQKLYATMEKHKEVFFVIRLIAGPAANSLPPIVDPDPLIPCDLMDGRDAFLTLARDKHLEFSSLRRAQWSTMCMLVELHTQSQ
Description: Biotinylated histone H4 peptide (substrate) is incubated with recombinant HAT enzyme (p300 catalytic domain) and ^3H-Acetyl-CoA, resulting in the covalent transfer of ^3H-acetate to the substrate. The ^3H-acetylated substrate can be extracted using immobilized streptavidin and counted in a scintillation counter. Thus, the amount of ^3H-acetylated substrate is a direct measure of HAT enzyme activity. Additional assays for HAT activity use core histones as the substrate and the ^3H-acetylated histone reaction products were separated from ^3H-Acetyl-CoA by membrane filtration.
Various concentrations of heparin were incubated in the presence of biotinylated histone H4 peptide, recombinant p300 catalytic domain, and [^3H]-acetyl-CoA for 1 hr at 30° C. Immobilized streptavidin was used to sequester the biotinylated substrate and was counted in a scintillation counter. Data presented are means of duplicates ±1 SE and are representative of five separate experiments. The amount of [^3H] associated with the immobilized streptavidin-biotinylated substrate in the absence of HAT enzyme (negative control) was 54.2±12.0.
HAT activity was assessed in vitro as outlined in FIG. 2. In a 1.7 mL microcentrifuge tube, 100 μL of substrate (biotinylated histone H4 peptide in 50 mM Tris, pH 7.4, 1 mM EDTA; from Pierce), 100 μL of a 5 mg/mL BSA solution (in H2O), 10.5 μL of 10×HAT buffer (500 mM Tris, pH 7.4, 10 mM EDTA), 20 U/mL of HAT enzyme (p300 HAT domain; from Upstate), and 1 μCi/mL of [^3H] Acetyl-CoA (Amersham) were mixed together and the reaction was allowed to proceed at 30° C. for 1 hour. Following this incubation, 100 μL of a 1:1 slurry of immobilized streptavidin (Pierce) pre-equilibrated in 1×HAT buffer (50 mM Tris, pH 7.4, 1 mM EDTA) was added and the sample was incubated for 30 min at RT on a rotating platform. After centrifugation at 10,000 g for 4 min, the supernatant containing the excess reactants was removed and the pellet containing the acetylated substrate bound to the immobilized streptavidin was washed 3 times with 500 μL RIPA buffer (50 mM Tris, pH 7.4, 150 mM NaCl, 1 mM EDTA, 1% NP-40, 0.5% SDC, 0.1% SDS). After the final wash, the pellet was resuspended in 500 μL 1×HAT buffer, diluted in EcoLite, and counted in a scintillation counter. Because of sample volume restrictions, reaction volumes were scaled down in some experiments.

[1] = tested on: histone H3 acetylation in pulmonary fibroblasts; assay: Histone H3 acetylation in pulmonary fibroblasts by western blot; format: cell-based, neonatal rat; conditions: 10 μg/ml, 24 h
Description: (§1) Primary neonatal rat fibroblasts and smooth muscle cells were established as described (Foster, J. A. et al., (1990)) and treated with heparin or N-desulfated heparin (10 μg/ml) for 24 h. Total cell extracts (100 μg protein for fibroblasts and 200 μg protein for smooth muscle cells) were generated and subjected to SDS-PAGE followed by electrotransfer to Immobilon membrane. Membranes were incubated with anti-acetylated histone H3 (Upstate) followed by enzyme linked secondary antibody. Bands were visualized with ECL.
Primary cultures of pulmonary fibroblasts were isolated from the lungs of neonatal rats using established protocols (Foster, J. A., et al., (1990) Pulmonary fibroblasts: an in vitro model of emphysema. Regulation of elastin gene expression, J Biol Chem 265, 15544-9). The cells were maintained in Dulbecco's Minimal Essential Medium supplemented with 5% fetal bovine serum, 0.1 mM non-essential amino acid solution, 100 U/ml penicillin and 100 μg/ml streptomycin. The cells were used in second passage for all experiments. Cell number determination was made based upon assay of cellular acid phosphatase levels using a previously established method (Connolly, D. T., et al., (1986) Anal. Biochem. 152, 136-140).
Immobilon membranes were blocked for 1 hour at room temperature with blocking buffer containing 3% milk in tris buffered saline containing 0.1% tween-20 (TBST). […]

[2] = tested on: histone H3 acetylation in aortic smooth muscle cells; assay: Histone H3 acetylation in aortic smooth muscle cells by western blot; format: cell-based, neonatal rat; conditions: 10 μg/ml, 24 h
Description: as §1
Immobilon membranes were blocked for 1 hour at room temperature with blocking buffer containing 3% milk in tris buffered saline containing 0.1% tween-20 (TBST). The blots were rinsed twice with TBST prior to incubation with the primary antibody solutions. The blots were incubated with the appropriate antibody dilution for 1 hour at room temperature or overnight at 4° C. The blots were washed with TBST prior to incubation with the appropriate HRP-linked IgG for 1 hour at room temperature. The blots were washed with TBST prior to chemiluminescence exposure.
We also treated another cell type, aortic smooth muscle cells, with heparin to determine if this response was general or specific to the pulmonary cells.

heparin [reference compound] was tested, and the “inhibition of HAT activity” value (p300 HAT domain; 34 μg/mL) was “almost complete inhibition”, the pIC50 (p300 HAT domain; molecular weight ~15 kD, read-out: IC50 for HAT activity, molar equivalent) was about 5.96 and the “level of histone H3 acetylation” value [1] was “reduced histone H3 actetylation slightly”. The “level of histone H3 acetylation” value [2] was “significant reduction of histone H3 acetylation”.
